Biological target: rRNA adenine N-6-methyltransferase ErmC (Staphylococcus aureus)
Test: Inhibition of Staphylococcus aureus ErmC methyltransferase

IC50: 0.45 µM
Compound: CC(C)c1ccc(NC(=S)N/N=C/c2cc(Cl)cc(Cl)c2O)cc1

— BindingDB's records for PubMed 37122541 (Emory University, 2023)
